ChEMBL document CHEMBL4619774 (J Med Chem, 2020)

What was measured:
[1] = Dose normalized Cmax in C57BL/6 mouse at 1 mg/kg, iv bolus injection or 3 mg/kg, po by LC-MS/MS analysis; format: ADME, organism-based; conditions: in vivo
Complement factor D = Complement factor D (Homo sapiens, UniProt P00746); format: single protein
[2] = Clearance in C57BL/6 mouse at 1 mg/kg, iv bolus injection or 3 mg/kg, po by LC-MS/MS analysis; format: ADME, organism-based; conditions: in vivo
[3] = Volume of distribution at steady state in C57BL/6 mouse at 1 mg/kg, iv bolus injection or 3 mg/kg, po by LC-MS/MS analysis; format: ADME, organism-based; conditions: in vivo, read-out: Vdss
[4] = Terminal half life in C57BL/6 mouse at 1 mg/kg, iv bolus injection or 3 mg/kg, po by LC-MS/MS analysis; format: ADME, organism-based; conditions: in vivo, read-out: beta t1/2 (converted)
Coagulation factor VII = target: T1, Coagulation factor VII (Homo sapiens, UniProt P08709); format: single protein
T1 sequence (P08709 whole entry): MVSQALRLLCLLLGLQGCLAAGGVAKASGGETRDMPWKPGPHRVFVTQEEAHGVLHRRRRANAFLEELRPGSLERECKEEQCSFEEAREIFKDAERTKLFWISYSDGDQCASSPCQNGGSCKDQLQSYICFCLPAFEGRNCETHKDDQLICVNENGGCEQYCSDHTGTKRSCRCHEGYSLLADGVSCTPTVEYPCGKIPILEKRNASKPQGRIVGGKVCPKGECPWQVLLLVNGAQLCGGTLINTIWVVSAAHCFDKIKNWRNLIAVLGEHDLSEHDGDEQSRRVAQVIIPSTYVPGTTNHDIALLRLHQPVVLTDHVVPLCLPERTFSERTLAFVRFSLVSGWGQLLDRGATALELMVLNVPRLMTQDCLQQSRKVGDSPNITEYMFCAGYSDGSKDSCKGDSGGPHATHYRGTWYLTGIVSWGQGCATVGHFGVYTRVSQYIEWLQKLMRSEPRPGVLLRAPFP

Coagulation factor IX = Coagulation factor IX (Homo sapiens, UniProt P00740); format: single protein
Sequence of Coagulation factor IX (P00740 47-191 limits assumed): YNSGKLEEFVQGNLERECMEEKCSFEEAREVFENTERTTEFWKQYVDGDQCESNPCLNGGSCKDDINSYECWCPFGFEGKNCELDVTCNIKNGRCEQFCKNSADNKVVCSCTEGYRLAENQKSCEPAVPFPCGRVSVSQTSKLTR
Sequence of Coagulation factor IX (P00740 227-461 limits assumed): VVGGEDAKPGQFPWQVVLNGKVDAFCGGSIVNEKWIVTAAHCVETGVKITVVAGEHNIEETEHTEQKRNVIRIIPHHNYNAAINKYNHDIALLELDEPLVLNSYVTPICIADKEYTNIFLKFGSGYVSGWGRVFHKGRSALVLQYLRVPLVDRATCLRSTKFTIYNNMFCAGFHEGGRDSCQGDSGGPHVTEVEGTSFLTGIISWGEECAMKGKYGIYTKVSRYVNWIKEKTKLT

Coagulation factor X = Coagulation factor X (Homo sapiens, UniProt P00742); format: single protein
Sequence of Coagulation factor X (P00742 41-179 limits assumed): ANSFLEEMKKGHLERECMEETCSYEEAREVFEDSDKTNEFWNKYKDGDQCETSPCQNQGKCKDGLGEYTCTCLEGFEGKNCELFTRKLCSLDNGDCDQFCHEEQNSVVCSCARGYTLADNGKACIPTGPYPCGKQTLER
Sequence of Coagulation factor X (P00742 235-488 limits assumed): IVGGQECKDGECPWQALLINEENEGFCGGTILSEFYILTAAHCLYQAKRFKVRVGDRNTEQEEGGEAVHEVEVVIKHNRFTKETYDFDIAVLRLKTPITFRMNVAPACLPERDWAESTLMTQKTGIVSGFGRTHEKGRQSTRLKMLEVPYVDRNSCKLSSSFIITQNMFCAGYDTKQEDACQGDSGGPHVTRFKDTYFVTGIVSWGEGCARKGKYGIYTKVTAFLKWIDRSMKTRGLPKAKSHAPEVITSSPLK

Prothrombin = Prothrombin (Homo sapiens, UniProt P00734); format: single protein
[5] = target: Tissue-type plasminogen activator (Homo sapiens, UniProt P00750); format: single protein
Sequence of Tissue-type plasminogen activator (P00750 whole entry): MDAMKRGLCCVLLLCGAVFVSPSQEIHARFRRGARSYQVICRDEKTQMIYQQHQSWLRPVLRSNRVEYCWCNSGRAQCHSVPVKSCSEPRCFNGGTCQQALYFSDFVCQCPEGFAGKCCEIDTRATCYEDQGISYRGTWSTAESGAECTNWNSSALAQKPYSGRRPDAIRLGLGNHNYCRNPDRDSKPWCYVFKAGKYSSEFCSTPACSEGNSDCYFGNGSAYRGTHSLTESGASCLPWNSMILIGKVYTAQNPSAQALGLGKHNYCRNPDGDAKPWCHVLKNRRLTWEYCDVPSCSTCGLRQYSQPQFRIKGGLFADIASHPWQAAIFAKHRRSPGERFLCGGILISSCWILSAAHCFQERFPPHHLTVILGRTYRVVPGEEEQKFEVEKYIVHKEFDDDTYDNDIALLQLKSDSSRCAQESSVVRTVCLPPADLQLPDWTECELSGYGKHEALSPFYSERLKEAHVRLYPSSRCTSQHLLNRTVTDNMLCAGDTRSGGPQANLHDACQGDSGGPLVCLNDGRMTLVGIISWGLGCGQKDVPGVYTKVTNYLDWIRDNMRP

Plasminogen = Plasminogen (Homo sapiens, UniProt P00747); format: single protein
Sequence of Plasminogen (P00747 97-580 limits assumed): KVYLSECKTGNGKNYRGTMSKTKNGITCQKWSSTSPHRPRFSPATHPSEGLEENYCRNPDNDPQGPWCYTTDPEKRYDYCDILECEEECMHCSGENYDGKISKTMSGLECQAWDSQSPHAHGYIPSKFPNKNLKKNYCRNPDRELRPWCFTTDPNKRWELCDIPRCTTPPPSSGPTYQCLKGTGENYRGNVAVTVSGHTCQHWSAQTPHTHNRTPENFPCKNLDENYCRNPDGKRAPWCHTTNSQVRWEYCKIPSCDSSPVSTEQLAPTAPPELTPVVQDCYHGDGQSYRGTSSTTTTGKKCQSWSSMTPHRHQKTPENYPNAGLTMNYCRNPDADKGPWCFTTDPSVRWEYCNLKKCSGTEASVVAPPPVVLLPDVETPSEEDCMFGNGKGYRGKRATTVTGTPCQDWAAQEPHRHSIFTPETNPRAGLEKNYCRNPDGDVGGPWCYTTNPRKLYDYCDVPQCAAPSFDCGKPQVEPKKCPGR
Sequence of Plasminogen (P00747 581-810 limits assumed): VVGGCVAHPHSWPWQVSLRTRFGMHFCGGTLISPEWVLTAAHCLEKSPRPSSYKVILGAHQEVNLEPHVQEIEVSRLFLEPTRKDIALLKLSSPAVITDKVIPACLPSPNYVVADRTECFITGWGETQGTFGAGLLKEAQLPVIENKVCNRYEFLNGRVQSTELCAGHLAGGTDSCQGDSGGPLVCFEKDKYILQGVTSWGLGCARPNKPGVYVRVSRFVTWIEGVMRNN

[6] = target: T2, Urokinase-type plasminogen activator (Homo sapiens, UniProt P00749); format: ADME
[7] = target: Prostaglandin G/H synthase 1 (Homo sapiens, UniProt P23219); assay: Inhibition of COX1 (unknown origin)
[8] = target: 3',5'-cyclic-AMP phosphodiesterase 4D (Homo sapiens, UniProt Q08499); assay: Inhibition of PDE4D (unknown origin)
Sequence of 3',5'-cyclic-AMP phosphodiesterase 4D (Q08499 whole entry): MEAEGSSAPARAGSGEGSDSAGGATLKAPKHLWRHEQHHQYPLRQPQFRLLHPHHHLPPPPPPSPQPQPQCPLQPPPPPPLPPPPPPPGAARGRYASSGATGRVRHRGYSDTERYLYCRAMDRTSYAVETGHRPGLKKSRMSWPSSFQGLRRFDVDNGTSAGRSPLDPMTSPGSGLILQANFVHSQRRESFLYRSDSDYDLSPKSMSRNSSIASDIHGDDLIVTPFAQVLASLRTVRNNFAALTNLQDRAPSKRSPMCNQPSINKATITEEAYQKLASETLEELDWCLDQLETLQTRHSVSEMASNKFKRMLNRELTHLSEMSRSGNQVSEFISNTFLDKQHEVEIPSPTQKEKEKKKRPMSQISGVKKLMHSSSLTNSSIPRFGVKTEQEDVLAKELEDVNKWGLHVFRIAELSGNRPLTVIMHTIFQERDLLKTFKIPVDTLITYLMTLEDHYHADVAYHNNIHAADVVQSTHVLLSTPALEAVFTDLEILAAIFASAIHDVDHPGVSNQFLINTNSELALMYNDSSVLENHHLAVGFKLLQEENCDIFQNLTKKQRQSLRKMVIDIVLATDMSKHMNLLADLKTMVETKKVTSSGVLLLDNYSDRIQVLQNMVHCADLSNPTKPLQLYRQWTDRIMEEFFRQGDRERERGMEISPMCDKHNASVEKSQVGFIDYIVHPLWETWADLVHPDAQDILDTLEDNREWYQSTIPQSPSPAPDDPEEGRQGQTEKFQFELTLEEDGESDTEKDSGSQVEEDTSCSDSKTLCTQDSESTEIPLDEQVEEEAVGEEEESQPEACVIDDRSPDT

[9] = target: Synaptic vesicular amine transporter (Homo sapiens, UniProt Q05940); assay: Inhibition of VMAT2 (unknown origin)
Sequence of Synaptic vesicular amine transporter (Q05940 whole entry): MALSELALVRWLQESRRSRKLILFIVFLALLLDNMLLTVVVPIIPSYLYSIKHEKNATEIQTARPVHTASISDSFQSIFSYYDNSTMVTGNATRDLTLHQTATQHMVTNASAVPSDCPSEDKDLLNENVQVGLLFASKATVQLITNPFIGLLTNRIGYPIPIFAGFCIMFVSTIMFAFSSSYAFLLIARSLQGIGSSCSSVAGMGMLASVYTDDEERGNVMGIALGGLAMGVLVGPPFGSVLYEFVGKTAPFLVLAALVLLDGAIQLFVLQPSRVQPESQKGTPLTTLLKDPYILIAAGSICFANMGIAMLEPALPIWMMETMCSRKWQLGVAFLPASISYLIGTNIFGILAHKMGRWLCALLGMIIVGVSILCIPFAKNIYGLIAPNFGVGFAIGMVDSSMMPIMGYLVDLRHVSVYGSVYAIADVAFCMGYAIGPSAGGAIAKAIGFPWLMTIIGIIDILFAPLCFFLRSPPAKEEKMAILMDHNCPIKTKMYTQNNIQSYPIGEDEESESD

[10] = target: T2, Urokinase-type plasminogen activator; format: single protein
[11] = Dose normalized AUC in C57BL/6 mouse at 3 mg/kg, po by LC-MS/MS analysis; format: ADME, organism-based; conditions: in vivo
[12] = Oral bioavailability in C57BL/6 mouse at 3 mg/kg by LC-MS/MS analysis; format: ADME, organism-based; conditions: in vivo
Plasma [13] = assay: Anticoagulant activity in human plasma assessed as concentration required to double the activated partial thromboplastin time incubated for 3 mins followed by calcium chloride addition by aPTT-s reagent based automated coagulometric method; format: functional
Plasma [14] = assay: Effect on coagulation in human plasma assessed as concentration required to double the prothrombin time by thromboplastin-DS reagent based automated coagulometric method; format: ADME, cell-free
Coagulation factor XI [15] = target: T3, Coagulation factor XI (Homo sapiens, UniProt P03951); assay: Inhibition of human F11a using D-Leu-Pro-Arg*Rh110-D-Pro as substrate preincubated for 60 mins followed by substrate addition and measured after 60 mins by fluorescence assay
T3 sequence (P03951 19-387 limits assumed): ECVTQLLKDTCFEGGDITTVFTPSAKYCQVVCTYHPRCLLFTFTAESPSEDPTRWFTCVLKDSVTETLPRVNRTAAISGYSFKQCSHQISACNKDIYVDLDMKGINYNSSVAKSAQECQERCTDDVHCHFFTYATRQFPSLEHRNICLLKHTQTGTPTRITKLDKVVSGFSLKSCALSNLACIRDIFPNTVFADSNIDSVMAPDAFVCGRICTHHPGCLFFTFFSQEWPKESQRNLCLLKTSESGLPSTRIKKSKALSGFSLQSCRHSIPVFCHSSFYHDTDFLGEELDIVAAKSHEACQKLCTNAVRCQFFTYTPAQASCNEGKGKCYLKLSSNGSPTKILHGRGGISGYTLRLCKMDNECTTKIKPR
T3 sequence (P03951 388-625 limits assumed): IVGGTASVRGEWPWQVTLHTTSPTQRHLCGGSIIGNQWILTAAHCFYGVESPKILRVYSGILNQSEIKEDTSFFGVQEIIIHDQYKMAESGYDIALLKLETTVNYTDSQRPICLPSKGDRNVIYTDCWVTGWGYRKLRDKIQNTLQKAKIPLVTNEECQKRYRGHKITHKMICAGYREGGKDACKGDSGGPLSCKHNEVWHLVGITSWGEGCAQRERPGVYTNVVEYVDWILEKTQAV

Plasma kallikrein = Plasma kallikrein (Homo sapiens, UniProt P03952); format: single protein
Sequence of Plasma kallikrein (P03952 20-390 limits assumed): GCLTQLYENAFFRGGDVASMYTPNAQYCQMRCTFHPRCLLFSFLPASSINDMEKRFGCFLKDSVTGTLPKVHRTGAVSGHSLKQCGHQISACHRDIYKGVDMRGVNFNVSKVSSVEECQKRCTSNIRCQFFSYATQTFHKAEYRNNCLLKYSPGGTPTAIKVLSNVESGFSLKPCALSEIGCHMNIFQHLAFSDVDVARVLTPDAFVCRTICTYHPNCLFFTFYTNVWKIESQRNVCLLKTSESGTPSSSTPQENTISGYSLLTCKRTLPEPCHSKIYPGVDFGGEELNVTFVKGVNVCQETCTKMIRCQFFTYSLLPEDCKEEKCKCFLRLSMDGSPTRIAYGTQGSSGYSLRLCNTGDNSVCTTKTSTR
Sequence of Plasma kallikrein (P03952 391-638 limits assumed): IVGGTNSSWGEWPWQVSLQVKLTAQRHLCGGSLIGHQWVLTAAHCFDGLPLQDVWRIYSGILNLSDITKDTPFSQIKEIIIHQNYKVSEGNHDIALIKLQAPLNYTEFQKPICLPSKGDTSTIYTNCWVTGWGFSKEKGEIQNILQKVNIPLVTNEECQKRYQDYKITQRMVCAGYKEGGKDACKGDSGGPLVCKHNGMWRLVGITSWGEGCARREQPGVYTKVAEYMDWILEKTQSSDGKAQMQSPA

Coagulation factor XI [16] = target: T3, Coagulation factor XI; assay: Inhibition of […] human plasma F11a catalytic domain expressed in Escherichia coli strain BL21(DE3) using D-Leu-Pro-Arg*Rh110-D-Pro as substrate preincubated for 60 mins followed by substrate addition and measured after 60 mins by fluorescence assay
[17] = Clearance in C57BL/6 mouse at 0.4 mg/kg, iv bolus injection or 3 mg/kg, po by LC-MS/MS analysis; format: ADME, organism-based; conditions: in vivo
[18] = Volume of distribution at steady state in C57BL/6 mouse at 0.4 mg/kg, iv bolus injection or 3 mg/kg, po by LC-MS/MS analysis; format: ADME, organism-based; conditions: in vivo, read-out: Vdss
[19] = Terminal half life in C57BL/6 mouse at 0.4 mg/kg, iv bolus injection or 3 mg/kg, po by LC-MS/MS analysis; format: ADME, organism-based; conditions: in vivo, read-out: beta t1/2 (converted)
[20] = Dose normalized AUC in C57BL/6 mouse at 0.4 mg/kg, iv bolus injection by LC-MS/MS analysis; format: ADME, organism-based; conditions: in vivo
[21] = Dose normalized Cmax in C57BL/6 mouse at 0.4 mg/kg, iv bolus injection or 3 mg/kg, po by LC-MS/MS analysis; format: ADME, organism-based; conditions: in vivo
[22] = Tmax in C57BL/6 mouse at 0.4 mg/kg, iv bolus injection or 3 mg/kg, po by LC-MS/MS analysis; format: ADME, organism-based; conditions: in vivo
Homo sapiens = species on record: Homo sapiens; assay: Selectivity ratio of IC50 for inhibition of human complement FD to IC50 for inhibition of human F11a

Sequence of Complement factor D (P00746 whole entry): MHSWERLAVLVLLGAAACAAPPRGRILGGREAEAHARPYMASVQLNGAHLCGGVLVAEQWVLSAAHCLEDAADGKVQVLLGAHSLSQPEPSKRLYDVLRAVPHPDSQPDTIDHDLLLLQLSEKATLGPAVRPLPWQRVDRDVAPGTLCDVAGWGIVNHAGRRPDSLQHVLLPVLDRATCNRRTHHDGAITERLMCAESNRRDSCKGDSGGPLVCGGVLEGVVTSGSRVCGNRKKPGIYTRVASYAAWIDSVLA

CC(C)c1cc(COc2ccccc2CC(=O)O)cc(-c2ccc3c(c2)[C@H](N)CO3)c1
Cmax/dose [1]: 5.263 µM | IC50 (Complement factor D): 40 nM | clearance [2]: 1 mL/min/kg | Vd [3]: 0.4 L/kg | half-life [4]: 5.5 h | IC50 (Coagulation factor VII): 5100 nM | IC50 (Coagulation factor IX): 170 nM | IC50 (Coagulation factor X): 500 nM | IC50 (Prothrombin): 90 nM | IC50 [5]: 90 nM | IC50 (Plasminogen): 2600 nM | IC50 [6]: 47 nM | IC50 [7]: 3300 nM | IC50 [8]: 7200 nM | IC50 [9]: 5200 nM | IC50 [10]: 47 nM | AUC/dose [11]: 48927 nM·h | bioavailability [12]: 100% | 2aPTT (Plasma [13]): 2.2 µM | 2PT (Plasma [14]): 9.9 µM

CC(C)c1cc(CCN2CCc3cccc(C(=O)O)c32)cc(-c2ccc3c(c2)[C@H](N)CO3)c1
IC50 (Coagulation factor XI [15]): 6 nM | IC50 (Complement factor D): 4410 nM | IC50 (Plasma kallikrein): 58 nM | IC50 (Coagulation factor XI [16]): 220 nM | IC50 (Coagulation factor VII): 6230 nM | IC50 (Coagulation factor IX): 3300 nM | IC50 (Coagulation factor X): 1830 nM | IC50 (Prothrombin): 3080 nM | IC50 [5]: 660 nM | IC50 (Plasminogen): 2560 nM | IC50 [10]: 520 nM | clearance [17]: 1 mL/min/kg | Vd [18]: 0.4 L/kg | half-life [19]: 9.2 h | AUC/dose [20]: 38652 nM·h | AUC/dose [11]: 14041 nM·h | bioavailability [12]: 36% | Cmax/dose [21]: 1.495 µM | Tmax [22]: 0.7 h | Ratio IC50 (Homo sapiens): 700
